According to patent US20230293573A1 (priority 2020, published 2023):
In brackets after ≈: the same amount, converted by molar mass. Like-named read-outs stand apart in the source and are kept apart here.

Assays:
[1] = target: T1, TMEM16F/Anoctamin6 (Homo sapiens, UniProt Q4KMQ2); settings: Spike-expressing cells; cited from earlier work
T1 sequence (Q4KMQ2 1-910): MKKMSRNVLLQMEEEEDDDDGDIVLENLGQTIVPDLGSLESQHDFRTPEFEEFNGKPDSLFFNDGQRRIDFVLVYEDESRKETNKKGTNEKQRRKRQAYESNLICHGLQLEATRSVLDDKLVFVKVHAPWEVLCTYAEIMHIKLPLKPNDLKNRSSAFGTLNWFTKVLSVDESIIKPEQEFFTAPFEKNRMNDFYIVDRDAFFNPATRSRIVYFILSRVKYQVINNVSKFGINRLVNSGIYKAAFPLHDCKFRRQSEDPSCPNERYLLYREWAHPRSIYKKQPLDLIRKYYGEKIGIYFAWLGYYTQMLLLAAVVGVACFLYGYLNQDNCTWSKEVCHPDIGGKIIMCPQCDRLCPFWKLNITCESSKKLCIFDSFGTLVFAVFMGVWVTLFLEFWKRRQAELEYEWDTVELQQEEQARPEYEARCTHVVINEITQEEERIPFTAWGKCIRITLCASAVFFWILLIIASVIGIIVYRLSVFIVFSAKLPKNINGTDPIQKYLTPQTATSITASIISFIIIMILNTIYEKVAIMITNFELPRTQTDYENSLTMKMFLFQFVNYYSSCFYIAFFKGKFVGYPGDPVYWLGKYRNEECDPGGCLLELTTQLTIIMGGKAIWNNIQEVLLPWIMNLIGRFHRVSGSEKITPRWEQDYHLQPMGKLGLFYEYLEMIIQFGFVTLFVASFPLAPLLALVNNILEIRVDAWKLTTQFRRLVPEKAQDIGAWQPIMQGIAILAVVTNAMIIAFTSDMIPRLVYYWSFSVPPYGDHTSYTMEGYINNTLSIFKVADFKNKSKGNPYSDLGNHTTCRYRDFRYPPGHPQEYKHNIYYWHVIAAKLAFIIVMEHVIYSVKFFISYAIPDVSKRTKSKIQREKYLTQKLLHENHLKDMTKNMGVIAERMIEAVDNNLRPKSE

[2] = rats, single oral dose 5 mg/kg, dissolved in DMSO/cremophor EL/water 3/15/82; cited from earlier work
[3] = test system: SARS-CoV-2; experiment: Anti-SARS-CoV-2 efficacy in Vero cells (Jeon et al. 2020); assay type: cell-based; settings: Severe acute respiratory syndrome coronavirus 2, Vero; for IC90: read-out: IC90 against SARS-CoV-2
[4] = test system: SARS-CoV-2; experiment: microbe, parasite or virus in culture; assay type: cell-based; settings: Severe acute respiratory syndrome coronavirus 2; Gassen et al. (2020); read-out: IC50 against SARS-CoV-2
[5] = cited from earlier work
[6] = test system: prostate cancer cell (PC-3); experiment: Inhibitory efficacy against prostate cancer cell PC-3; assay type: cell-based; settings: estimated from dose-efficacy curve, FIG. 7
[7] = test system: SARS-CoV-2; settings: Gassen et al. (2020); read-out: IC50 against SARS-CoV-2; cited from earlier work
[8] = cited from earlier work; remark: listed apart in the source
[9] = phosphate buffer, depending on temperature of measurement; cited from earlier work
[10] = Solubilization and dispersion of niclosamide by OHPP; settings: 2.5 mg/mL niclosamide in phosphate buffer

O=C(Nc1ccc([N+](=O)[O-])cc1Cl)c1cc(Cl)ccc1O [niclosamide, 2′,5-Dichloro-4′-nitrosalicylanilide]
effect on calcium oscillations and membrane conductances through TMEM16F [1]: markedly blunted calcium oscillations and membrane conductances
highest plasma concentration (Cmax) [2]: 354 ± 152 ng/mL
IC90 ([3]; read from FIG. 2 (Jeon et al. 2020)): ~700 nM
IC50 ([3]; read-out: IC50 against SARS-CoV-2): 0.092 µg/mL (≈ 0.281 µM)
IC90 [3]: ~0.229 µg/mL
IC50 [4]: 0.056 µg/mL (≈ 0.171 µM)
BCS solubility [5]: low solubility
solubility definition ([5]; delMoral-Sanchez et al., 2019): practically insoluble
IC50 [6]: 5.93 µg/mL (≈ 18.1 µM)
IC50 [7]: 170 nM
maximal plasma concentration ([8]; 500 mg TID): 35.7 to 182 ng/mL
side effects ([8]; 500 or 1000 mg TID oral, 4 weeks): mostly associated with the GI tract
maximal plasma concentration, highest level reached ([8]; 500 or 1000 mg TID, 4 weeks): 182 ng/mL
solubility [9]: 0.3 to 1.14 µg/mL
appearance of dispersion [10]: did not dissolve and showed heavy clouds and precipitates
